Biological target: T1, CDK2/cyclin A (Homo sapiens, UniProt P24941)
T1 construct: purchased Thermo Fisher Scientific (Life Technologies) SelectScreen
Assay: SelectScreen Z'LYTE
Type: biochemical
Summary of the method: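 SelectScreen broad panel; activity (Z'LYTE, Adapta) plus binding formats. ATP: Km app for CSF1R Z'LYTE; 10 for CAMK1 Adapta. Readout = % per kinase.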

`CN(C(=O)CN1CCOCC1)c1ccc2sc3c(-c4cccc5c(=O)cc(N6CC7CCC(C6)O7)oc45)cccc3c2c1` [NU5455] gave an inhibition at 1 µM of 2.7%.

From publication PMC6934184, “Selective DNA-PKcs inhibition extends the therapeutic index of localized radiotherapy and chemotherapy” (The Journal of Clinical Investigation, 2019)
